# Laboratory results taken from patent US11384065B2, “Heterocyclic compound as CSF-1R inhibitor and use thereof” (MEDSHINE DISCOVERY INC., priority 2018, dated 2022).
# Columns and labels:
# [1] = Pharmacokinetic study after intravenous injection and oral administration (plasma, LC-MS/MS); assay type: in vivo, rats; conditions: for AUC(0-t) / C0 / Vd / clearance / half-life / Cmax: male, SD, rat, plasma
# From the text: Example 2 Pharmacokinetic Study on Mice and Rats (PK)
# The purpose of this experiment was to study the pharmacokinetics of the test article in the plasma of male C57BL/6J mice and SD rats after intravenous injection and oral administration.
# The animals were randomly divided into two groups with 2 males in each group. The compounds were formulated into prescribed preparations. Preparations for intravenous injection were clear solutions, and oral preparations could be clear or homogeneous suspensions.
# Whole blood samples were collected from the jugular vein puncture or saphenous vein of the animals 5 minutes, 15 minutes, 30 minutes, 1 hour, 2 hours, 4 hours, 6 hours, and 8 hours after administration. The whole blood sample was added to the centrifuge tube containing anticoagulant, and centrifuged at 3000 g for 15 minutes at 4° C. The supernatant of plasma was taken, frozen quickly on dry ice, and then stored in a −70° C.±10° C. refrigerator until LC-MS/MS analysis.
# WinNonlin™ Version 6.3.0 (Pharsight, Mountain View, Calif.) pharmacokinetic software was used to process the plasma drug concentration data of the compounds with a non-compartmental model. The peak concentration (Cmax), peak time (Tmax) and quantifiable end time were obtained directly from the blood drug concentration-time profile.
# The following pharmacokinetic parameters were calculated using the log-linear trapezoid method: Plasma clearance rate (CL), volume of distribution (Vd), elimination phase half-life (T1/2), average residence time of drug in the body from 0 to the end time point (MRT0-last), average residence time of the drug in the body from 0 to infinite time (MRT0-inf), area under the time-plasma concentration curve from 0 to the end time point (AUC0-last), area under the time-plasma concentration curve from 0 to infinite time (AUC0-inf) and bioavailability (F), C0 was the initial concentration.
# CSF-1R = CSF-1R (Homo sapiens (Human), UniProt P07333); test: In vitro inhibitory activity on CSF-1R kinase (33P-ATP filter-binding, Reaction Biology Corporation); assay type: biochemical; conditions: CSF-1R 2.5 nM, filter-binding method
# Sequence of CSF-1R (P07333 20-972): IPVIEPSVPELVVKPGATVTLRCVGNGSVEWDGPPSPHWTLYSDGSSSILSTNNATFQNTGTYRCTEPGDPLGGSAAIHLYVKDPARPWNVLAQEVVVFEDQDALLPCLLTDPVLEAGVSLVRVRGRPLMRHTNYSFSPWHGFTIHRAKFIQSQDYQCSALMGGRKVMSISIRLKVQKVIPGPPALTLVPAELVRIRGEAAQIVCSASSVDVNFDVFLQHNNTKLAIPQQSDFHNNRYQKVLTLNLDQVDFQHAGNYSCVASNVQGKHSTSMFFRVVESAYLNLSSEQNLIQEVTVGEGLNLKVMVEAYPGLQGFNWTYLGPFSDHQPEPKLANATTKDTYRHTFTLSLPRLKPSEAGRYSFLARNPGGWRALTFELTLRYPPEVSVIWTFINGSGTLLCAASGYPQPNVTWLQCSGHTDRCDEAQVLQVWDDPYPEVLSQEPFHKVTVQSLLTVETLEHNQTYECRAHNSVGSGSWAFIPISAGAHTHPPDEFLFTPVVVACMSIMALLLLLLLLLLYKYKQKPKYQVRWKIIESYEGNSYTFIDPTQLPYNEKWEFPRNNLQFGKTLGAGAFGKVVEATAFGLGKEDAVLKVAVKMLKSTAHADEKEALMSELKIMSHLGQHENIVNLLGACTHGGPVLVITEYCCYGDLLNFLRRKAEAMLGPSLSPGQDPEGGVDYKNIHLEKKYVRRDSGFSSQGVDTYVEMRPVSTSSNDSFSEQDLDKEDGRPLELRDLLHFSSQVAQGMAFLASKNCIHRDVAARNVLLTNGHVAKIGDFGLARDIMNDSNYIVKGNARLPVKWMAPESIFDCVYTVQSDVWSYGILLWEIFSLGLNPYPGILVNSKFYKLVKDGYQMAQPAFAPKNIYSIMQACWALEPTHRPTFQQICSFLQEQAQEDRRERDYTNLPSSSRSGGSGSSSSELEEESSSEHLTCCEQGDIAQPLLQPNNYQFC
# Description: Experimental Example 1: In Vitro Inhibitory Activity of the Compounds of the Present Invention on CSF-1R in Terms of Enzymology The compounds of the present invention for experiments were made in house, and their structural formulas were shown in the preparation examples of each compound. The experimental tests were conducted at Reaction Biology Corporation in the United States, and the experimental results were provided by the company. Experimental Reagents: Necessary reaction buffer: 20 mM hydroxyethylpiperazine ethanesulfonic acid (pH 7.5), 10 mM magnesium chloride, 1 mM EGTA, 0.02% Brij35, 0.02 mg/mL bovine serum albumin, 0.1 mM Na3VO4, 2 mM DTT, 1% DMSO. The necessary cofactors were added separately to the CSF-1R kinase reaction. Enzyme: the concentration of CSF-1R was 2.5 nM Treatment with the Compounds: The compound to be tested was formulated with 100% DMSO into a solution with a specific concentration, and serial dilution was performed with DMSO through the intelligent pipetting assistant Integra Viaflo Assist. Experimental Procedure: […] All necessary cofactors were added to the above reaction buffer; CSF-1R kinase was added to the above matrix solution and shaken gently; Using acoustic technology (Echo550; nanoliter range), a solution of the compound in DMSO was added to the above kinase reaction mixture, and the reaction solution was incubated at room temperature for 20 minutes; ^33P-ATP (specific activity, 10 μCi/μl) was added to the above kinase reaction mixture to initiate the reaction; The reaction solution was incubated at room temperature for 2 hours; The kinase activity was detected by the filter-binding method; The kinase activity was the ratio of the remaining kinase in the test sample to the vehicle (DMSO) group. IC50 values and profiles were obtained using Prism (GraphPad software).
Structure (SMILES),IC50 (CSF-1R) [nM],further results
CNc1ccc(-c2cnc(Nc3cnc(C4CC4)nc3)cc2C)c2c1C(=O)NC2 [Compound 10],2.61,"F ([1]; PO (10 mpk)): 106%; AUC(0-t) ([1]; 1 mg/kg, IV (1 mpk)): 18.7 µM·h; C0 ([1]; 1 mg/kg, IV (1 mpk)): 6.29 µM; Vd ([1]; 1 mg/kg, IV (1 mpk)): 0.495 L/kg; clearance ([1]; 1 mg/kg, IV (1 mpk)): 2.31 mL/min/kg; half-life ([1]; 1 mg/kg, IV (1 mpk)): 2.53 h; AUC(0-t) ([1]; 10 mg/kg, PO (10 mpk)): 198 µM·h; Cmax ([1]; 10 mg/kg, PO (10 mpk)): 33 µM"
CNc1ccc(-c2cnc(Nc3ccc(OC(F)F)nc3)cc2C)c2c1C(=O)NC2 [Compound 8],4.98,–
Cc1cc(NCc2ccc(C(F)(F)F)nc2)ncc1-c1ccc(N)c2c1CNC2=O [Compound 2],1.55,–
CNc1ccc(-c2cnc(Nc3ccc(OC4CC4)nn3)cc2C)c2c1C(=O)NC2 [Compound 18],3.43,–
CC(=O)Nc1ccc(-c2cnc(NCc3ccc(C(F)(F)F)nc3)cc2C)c2c1C(=O)NC2 [Compound 3],24.5,–
"COc1ccc(-c2ccc(NC(=O)Nc3cccc(C)c3)cc2)c2c1C(=O)NC2 [Control compound, reference compound]",–,"F ([1]; PO (10 mpk)): 3.92%; AUC(0-t) ([1]; 1 mg/kg, IV (1 mpk)): 0.918 µM·h; C0 ([1]; 1 mg/kg, IV (1 mpk)): 3.72 µM; Vd ([1]; 1 mg/kg, IV (1 mpk)): 1.48 L/kg; clearance ([1]; 1 mg/kg, IV (1 mpk)): 46.7 mL/min/kg; half-life ([1]; 1 mg/kg, IV (1 mpk)): 0.92 h; AUC(0-t) ([1]; 10 mg/kg, PO (10 mpk)): 0.333 µM·h; Cmax ([1]; 10 mg/kg, PO (10 mpk)): 0.104 µM"
CNc1ccc(-c2cnc(Nc3cnc(OC4CC4)cn3)cc2C)c2c1C(=O)NC2 [Compound 19],2.55,–
CNc1ccc(-c2cnc(Nc3ccc(C4CC4)nc3)cc2C)c2c1C(=O)NC2 [Compound 15],0.82,–
CNc1ccc(-c2cnc(Nc3cnc(OC4CC4)nc3)cc2C)c2c1C(=O)NC2 [Compound 16],2.49,–
CNc1ccc(-c2cnc(NCc3ccc(C(F)(F)F)nc3)cc2C)c2c1C(=O)NC2 [Compound 4],1.27,–
CNc1ccc(-c2cnc(Nc3ccn(C4CC4)c(=O)c3)cc2C)c2c1C(=O)NC2 [Compound 20],12.1,–
CNc1ccc(-c2cnc(Nc3ccc(N(C)C)nc3)cc2C)c2c1C(=O)NC2 [Compound 9],1.41,–
Cc1cc(NCc2ccc(C(F)(F)F)nc2)ncc1-c1ccc(N(C)C)c2c1CNC2=O [Compound 1],3.06,–
CCOc1ccc(Nc2cc(C)c(-c3ccc(NC)c4c3CNC4=O)cn2)cn1 [Compound 7],1.87,–
CNc1ccc(-c2cnc(Nc3cnc(C4CC4)cn3)cc2C)c2c1C(=O)NC2 [Compound 12],1.89,–
CNc1ccc(-c2cnc(Nc3ccc(OC4CC4)nc3)cc2C)c2c1C(=O)NC2 [Compound 5],1.68,–
CNc1ccc(-c2cnc(Nc3ccc(OC4CC4)cn3)cc2C)c2c1C(=O)NC2 [Compound 17],4.15,–
CNc1ccc(-c2cnc(Nc3ccc(C4CC4)cn3)cc2C)c2c1C(=O)NC2 [Compound 14],2.5,–
CNc1ccc(-c2cnc(Nc3ncc(C4CC4)cn3)cc2C)c2c1C(=O)NC2 [Compound 13],3.78,–
CNc1ccc(-c2cnc(Nc3ccc(C4(C#N)CC4)nc3)cc2C)c2c1C(=O)NC2 [Compound 6],5.01,–
CNc1ccc(-c2cnc(Nc3ccc(C4CC4)nn3)cc2C)c2c1C(=O)NC2 [Compound 11],4.71,–
